Results as given in publication PMC13083723 (Patterns, 2026).
Several values for one entry are separate records, joined by “and”; a condition that tells them apart may be missing. Equal values may be shown once. Where a name gives a salt, the structure may show the parent alone. Read-outs that look alike come from different tables or passages of the source.

Assays:
Vero-E6 cells = experiment: cells; assay type: cell-based
A549-ACE2 cells = experiment: cells; assay type: cell-based; conditions: A549-ACE2, 24 h, read-out: PLD_Effect(%) A549-ACE2
[1] = cited from earlier work
SARS-CoV-2 = conditions: 10 µM; cited from earlier work
[2] = Chlorocebus sabaeus, Vero C1008, 24 h, read-out: PLD_Effect(%) VERO-E6
[3] = value is the negative log10 of mol/L
[4] = Chlorocebus sabaeus, Vero C1008, read-out: PLD EC50 µM
[5] = Chlorocebus sabaeus, Vero C1008, 24 h; read-out: PLD Effect in % 5 µM
[6] = Chlorocebus sabaeus, Vero C1008, 24 h; read-out: PLD Effect in % 10 µM
[7] = Chlorocebus sabaeus, Vero C1008, 24 h; read-out: PLD Effect in % 20 µM

Cn1ncc(Cl)c1-c1cc(C(=O)N[C@H](CN)Cc2cccc(F)c2)sc1Cl [Afuresertib]
activation at 10 µM (Vero-E6 cells; [2]): 69.5% | activation at 10 µM (A549-ACE2 cells): 77.1% | Ki ([1]; read-out: Ki (value)): 0.08 nM | pchembl_value (IC50) [1, 3]: 10.10 and 8.70 and 8.59 | pchembl_value (Ki) [1, 3]: 10.10

CN1CCCC(n2nc(Cc3ccc(Cl)cc3)c3ccccc3c2=O)CC1 (centres unmarked) [AZELASTINE HYDROCHLORIDE]
activation at 10 µM (Vero-E6 cells; [2]): 57.2% | activation at 10 µM (A549-ACE2 cells): 57.3% | pIC50 (value) [1]: 7.0 | pchembl_value (AC50) [1]: 7.62 | pchembl_value (pIC50) [1]: 7.00 | AC50 ([1]; read-out: AC50 (value)): 24 nM | IC50 ([1]; read-out: IC50 (value)): 1000 nM | pchembl_value (IC50) [1, 3]: 6.00

C[C@@H]1CN(CCCn2c3ccccc3c3ccccc32)C[C@H](C)N1 [rimcazole]
activation at 10 µM (Vero-E6 cells; [2]): 99.9% | activation at 10 µM (A549-ACE2 cells): 109% | Log IC50 (value) [1]: -6.23 | pchembl_value (Log IC50) [1]: 6.23 | Ki ([1]; read-out: Ki (value)): 908 nM | pchembl_value (Ki) [1, 3]: 6.04

CN1C2CCC1CC(OC(c1ccc(F)cc1)c1ccc(F)cc1)C2 (centres unmarked)
activation at 10 µM (Vero-E6 cells; [2]): 61.5% | activation at 10 µM (A549-ACE2 cells): 76.3% | Log 1/Ki (value) [1]: 7.86 | pchembl_value (Log 1/Ki) [1]: 7.86 | pchembl_value (Ki) [1, 3]: 6.84 and 6.07 and 7.94

COc1cc2c(NC3CCN(C(C)C)CC3)nc(C3CCCCC3)nc2cc1OCCCN1CCCC1 [UNC0638]
activation at 10 µM (Vero-E6 cells; [2]): 60.7% | activation at 10 µM (A549-ACE2 cells): 112% | pchembl_value (type IC50), Histone-lysine N-methyltransferase, H3 lysine-9 specific 3 [1]: 7.26 and 7.82 and 7.92 | pchembl_value (type IC50), Histone-lysine N-methyltransferase, H3 lysine-9 specific 5 [1]: 7.72 | pchembl_value (type Ki), Histone-lysine N-methyltransferase, H3 lysine-9 specific 3 [1]: 8.43 and 7.75 | IC50 ([1]; read-out: IC50 (value), Histone-lysine N-methyltransferase, H3 lysine-9 specific 3): 55 nM and 15 nM | IC50 ([1]; read-out: IC50 (value), Histone-lysine N-methyltransferase, H3 lysine-9 specific 5): 19 nM | IC50 ([1]; read-out: IC50 (value), Lysine-specific histone demethylase 1): 180 nM | Ki ([1]; read-out: Ki (value), Histone-lysine N-methyltransferase, H3 lysine-9 specific 3): 3.7 nM | pchembl_value (type IC50), Lysine-specific histone demethylase 1 [1, 3]: 6.75

CNCCC(Oc1ccc(C(F)(F)F)cc1)c1ccccc1 (centres unmarked) [FLUOXETINE HYDROCHLORIDE]
activation at 10 µM (Vero-E6 cells; [2]): 54.3% | activation at 10 µM (A549-ACE2 cells): 109% | pchembl_value (AC50) [1]: 7.03 and 7.53

OC(c1cc(C(F)(F)F)nc2c(C(F)(F)F)cccc12)C1CCCCN1 (centres unmarked) [mefloquine hydrochloride, reference compound]
activation at 5 µM (Vero-E6 cells; Chlorocebus sabaeus, Vero C1008, 24 h, read-out: PLD Effect in % 5 µM): 102% | activation at 10 µM (Vero-E6 cells; Chlorocebus sabaeus, Vero C1008, 24 h, read-out: PLD Effect in % 10 µM): 188% | activation at 20 µM (Vero-E6 cells; Chlorocebus sabaeus, Vero C1008, 24 h, read-out: PLD Effect in % 20 µM): 174% | EC50 (Vero-E6 cells; [4]): 1.48 µM | Vero-E6 CPE inhibition % (SARS-CoV-2): -0.32%

Cc1cccc(C)c1NC(=O)CN1CCN(CCCC(c2ccc(F)cc2)c2ccc(F)cc2)CC1 [lidoflazine, reference compound]
activation at 10 µM (Vero-E6 cells; [2]): 52.6% | activation at 5 µM (Vero-E6 cells; [5]): 65.3% | activation at 10 µM (Vero-E6 cells; [6]): 80.2% | activation at 20 µM (Vero-E6 cells; [7]): 129% | EC50 (Vero-E6 cells; [4]): 5.51 µM | activation at 10 µM (A549-ACE2 cells): 90.9% | Vero-E6 CPE inhibition % (SARS-CoV-2): 0.5%

Nc1nc2c(c(N3CCNCC3)n1)CCC1=C2[C@@H]2CCCC[C@@H]2O1 [A-987306]
activation at 10 µM (Vero-E6 cells; [2]): 70.7% | activation at 10 µM (A549-ACE2 cells): 52.2% | pKi (value) [1]: 7.1 | pchembl_value (pKi) [1]: 7.10 | pchembl_value (IC50) [1, 3]: 8.41 and 10.06 and 8.24

CN(C(=O)Cc1ccc(Cl)c(Cl)c1)[C@H](CN1CCCC1)c1ccccc1 [ICI-199441]
activation at 10 µM (Vero-E6 cells; [2]): 53.5% | activation at 10 µM (A549-ACE2 cells): 99.8% | IC50 ([1]; read-out: IC50 (value)): 26 nM | pchembl_value (IC50) [1, 3]: 7.58

C[C@H](Oc1cc(-c2cnn(C3CCNCC3)c2)cnc1N)c1c(Cl)ccc(F)c1Cl [(S)-crizotinib]
activation at 10 µM (Vero-E6 cells; [2]): 70.2% | activation at 10 µM (A549-ACE2 cells): 102% | IC50 ([1]; read-out: IC50 (value)): 680 nM | Ki ([1]; read-out: Ki (value)): 161 nM | pchembl_value (IC50) [1, 3]: 6.86 and 6.17 | pchembl_value (Kd) [1, 3]: 7.43 and 6.28 and 7.41 | pchembl_value (Ki) [1, 3]: 6.79

Clc1ccc(C(OCCN2CCCCC2)c2ccccc2)cc1 (centres unmarked) [CLOPERASTINE HYDROCHLORIDE]
activation at 10 µM (Vero-E6 cells; [2]): 63.9% | activation at 10 µM (A549-ACE2 cells): 72.5% | pchembl_value (AC50) [1]: 6.48 | AC50 ([1]; read-out: AC50 (value)): 331 nM

OCCN1CCN(CC/C=C2/c3ccccc3Sc3ccc(C(F)(F)F)cc32)CC1 [Flupentixol]
activation at 10 µM (Vero-E6 cells; [2]): 83.6% | activation at 10 µM (A549-ACE2 cells): 81.9% | Log IC50 (value) [1]: -8.65 | pchembl_value (Log IC50) [1]: 8.65

CNCC[C@H](Oc1cccc2ccccc12)c1cccs1 [DULOXETINE HYDROCHLORIDE]
activation at 10 µM (Vero-E6 cells; [2]): 92.6% | activation at 10 µM (A549-ACE2 cells): 91.5% | IC50 [1]: 440 nM

CCCOC(C(=O)OC1CCN(C)CC1)(c1ccccc1)c1ccccc1 [Propiverine Hydrochloride]
activation at 10 µM (Vero-E6 cells; [2]): 63.8% | activation at 10 µM (A549-ACE2 cells): 102% | pchembl_value (AC50) [1]: 6.08 and 6.12 | AC50 ([1]; read-out: AC50 (value)): 830 nM and 750 nM

C[C@@H]1CCCN1CCc1cc2cc(-c3ccc(C#N)cc3)ccc2o1 [ABT 239 tartrate]
activation at 10 µM (Vero-E6 cells; [2]): 66.8% | activation at 10 µM (A549-ACE2 cells): 67.4% | Ki ([1]; read-out: Ki (value)): 0.45 nM

CCN(CCCc1ccccc1)CCCc1ccccc1 [ALVERINE CITRATE]
activation at 10 µM (Vero-E6 cells; [2]): 58.9% | activation at 10 µM (A549-ACE2 cells): 63.7% | AC50 [1]: 29 nM

C=CCN(C)CCCCCCOc1ccc(C(=O)c2ccc(Br)cc2)c(F)c1 [Ro 48-8071 (fumarate)]
activation at 10 µM (Vero-E6 cells; [2]): 92.9% | activation at 10 µM (A549-ACE2 cells): 102% | Log IC50 (value) [1]: -8.19 | pIC50 (value) [1]: 6.65 | pchembl_value (Log IC50) [1]: 8.19 | pchembl_value (pIC50) [1]: 6.65

O=S(=O)(NCCNC/C=C/c1ccc(Br)cc1)c1cccc2cnccc12 [H-89]
activation at 10 µM (Vero-E6 cells; [2]): 60.8% | activation at 10 µM (A549-ACE2 cells): 98.9% | IC50 ([1]; read-out: IC50 (value)): 590 nM | Kd ([1]; read-out: Kd (value)): 24 nM | pchembl_value (Kd) [1, 3]: 7.62

CCN(CC)CCOC(=O)C(c1ccccc1)C1CCCCC1 (centres unmarked) [DROFENINE HYDROCHLORIDE]
activation at 10 µM (Vero-E6 cells; [2]): 52% | activation at 10 µM (A549-ACE2 cells): 53.9% | pchembl_value (AC50) [1]: 6.66 and 7.47

CN1CCC(Nc2ncc3ncnc(Nc4ccc(F)c(Cl)c4)c3n2)CC1 [BiBX-1382, reference compound]
activation at 5 µM (Vero-E6 cells; [5]): 85.8% | activation at 10 µM (Vero-E6 cells; [6]): 75.5% | activation at 20 µM (Vero-E6 cells; [7]): -0.64% | EC50 (Vero-E6 cells; [4]): 0.61 µM | Vero-E6 CPE inhibition % (SARS-CoV-2): 0.28%

CN1CCCN(C(c2ccccc2)c2ccc(Cl)cc2)CC1 (centres unmarked) [Homochlorcyclizine?2HCl]
activation at 10 µM (Vero-E6 cells; [2]): 82.5% | activation at 10 µM (A549-ACE2 cells): 69.6% | pchembl_value (AC50) [1]: 6.64 and 7.14 and 6.83

Cn1ncc(Cl)c1-c1cc(C(=O)N[C@H](CN)Cc2ccc(F)c(F)c2)oc1Cl [Uprosertib]
activation at 10 µM (Vero-E6 cells; [2]): 82.6% | activation at 10 µM (A549-ACE2 cells): 92% | IC50 ([1]; read-out: IC50 (value)): 339 nM | pchembl_value (IC50) [1, 3]: 6.47

CC(C)c1cnn2c(NCc3ccccc3)cc(NCCCCCCN)nc12 [BS-181]
activation at 10 µM (Vero-E6 cells; [2]): 53.6% | activation at 10 µM (A549-ACE2 cells): 63.8% | IC50 ([1]; read-out: IC50 (value)): 21 nM

CCN(CC)CCCC(C)Nc1c2ccc(Cl)cc2nc2ccc(OC)cc12 (centres unmarked) [quinacrine hydrochloride, reference compound]
activation at 5 µM (Vero-E6 cells; [5]): 145% | activation at 10 µM (Vero-E6 cells; [6]): 141% | activation at 20 µM (Vero-E6 cells; [7]): -13.2% | EC50 (Vero-E6 cells; [4]): 1.55 µM | Vero-E6 CPE inhibition % (SARS-CoV-2): -0.23%

CC(CN1c2ccccc2Sc2ccccc21)N(C)C (centres unmarked) [PROMETHAZINE HYDROCHLORIDE]
activation at 10 µM (Vero-E6 cells; [2]): 55.4% | activation at 10 µM (A549-ACE2 cells): 96.5% | AC50 [1]: 30 nM

N[C@H]1CC[C@H](N[C@@H]2C[C@H]2c2ccccc2)CC1 [ORY-1001 (RG-6016) 2HCl]
activation at 10 µM (Vero-E6 cells; [2]): 65.7% | activation at 10 µM (A549-ACE2 cells): 98.4% | Ki [1]: 50 nM | pchembl_value [1]: 9.85 and 7.30 and 7.48

CN1CCN(C(=O)CN[C@@H]2C[C@H]2c2ccc(OCc3ccccc3)cc2)CC1 [RN-1]
activation at 10 µM (Vero-E6 cells; [2]): 87.7% | activation at 10 µM (A549-ACE2 cells): 70.6% | pchembl_value (IC50) [1, 3]: 8.51 and 6.29

O=C(NCCN1CCC2(CC1)C(=O)NCN2c1cccc(F)c1)c1ccc2ccccc2c1 [VU-0364739]
activation at 10 µM (Vero-E6 cells; [2]): 55.1% | activation at 10 µM (A549-ACE2 cells): 113% | IC50 ([1]; read-out: IC50 (value)): 20 nM | pchembl_value (IC50) [1, 3]: 7.70
